According to patent US9023853B2, “Janus kinase 2 (JAK2) inhibitor for the treatment of lupus” (Cephalon, Inc., priority 2010, dated 2015):
“And” between values parts separate entries of the source, which are not always exact repeats. Identical values can stand only once. “Also recorded” adds a separate entry of the source.

Tests used:
Type in all cases: in vivo, mouse
NZM mice [1] = assay: Renal histopathology kidney IC-GN scoring in NZM mice; conditions: for D: Glomerular Sclerosis / E: Interstitial Infiltration / G: Interstitial Fibrosis / B: Glomerular Cellularity / C: Glomerular Necrosis / F: Tubular Atrophy / H: Vasculitis: NZM individual mouse; for Glomerular Cellularity / Glomerular Necrosis / Glomerulosclerosis / Interstitial Fibrosis / Interstitial Infiltration / Tubular Atrophy / Vasculitis: NZM kidney score (grade 0-5), mean; for glomerular cellularity decrease compared to vehicle: p<0.001
Experimental: For histological analyses, the left kidney and lung (NZM model only) from each animal was removed and fixed in 10% buffered neutral 10% formalin (EMD) for 48 hours on an orbital rocker at 25° C., then washed overnight with running dH2O and stored in 70% ethanol at 4° C. until ready to be processed. Kidney stains used for histological analyses included hematoxylin and eosin (H&E), Periodic Acid Schiff (PAS) and Trichrome stains (Wistar Institute, Philadelphia, Pa.). All 3 stained sections were used by the pathologist for scoring purposes. All histological scoring was performed blinded and by an independent board certified veterinary medical pathologist (Julie Engiles, VMD, DACVP; University of Pennsylvania). Multiple stains were used to determine score values. Images in FIGS. 8, 19 and 20 show worst affected area of section selected blindly by the pathologist.
Kidney IC-GN Scoring Method (Smith, Dong et al. 2007):
1. […]
2. […]
3. […]
4. […]
5. […]
6. […]
7. […]
Also considered effacement of the glomerular tuft by PAS positive, Trichrome negative material necrosis. • Glomerular sclerosis was defined by increased fibroplasia or fibrosis within the glomerular tuft or capsule. […] Pharmacodynamic (PD) Analysis
(§1) Age mated, female, NZM or NZW/LacJ, mice were matured for the study of lupus nephritis for a total of 7 months or 210 days at which time urine was collected for proteinuria detection. Mice with 0.5-1.0 mg/ml of urine protein as determined by an optical density-based total protein precipitation assay and cross-checked for 30-300 mg/dl of protein as determined by a stick assay were considered proteinuria positive and selected for study entry. Groups were normalized to contain a Gaussian distribution of proteinuria positive animals (i.e., ⅓ low proteinuria, ⅓ medium, ⅓ high) then randomized between groups before ear marking and taking baseline measures including urine and serum collections. A total of five mice from the total population were randomly selected for baseline kidney histology evaluation. Treatments and tests for each group are as described in FIG. 12. Briefly, with a minimum of 10 mice per group, COMPOUND A was administered at 100 mg/kg or 55 mg/kg, both twice a day and orally. […] Vehicle included 3% DMSO, 10% Solutol and 87% PBS. […] End-stage lupus nephritis was evaluated by histopathology and scored by a board certified pathologist for the assessment of total renal damage in diseased animals using the scoring method described by Smith et al (Smith, Dong et al. 2007). […] Day-98 or “end of treatment/study” represents 310 days of age for the NZM animals.

NZM mice [2] = assay: Survival in NZM lupus model; conditions: for Age (d), MEAN: NZM group mean; for Age: NZM individual mouse (survival; EOS = 310 days of age); for survival at EOS: NZM mice
Experimental: Six week old lupus-prone, female, MRL/lpr (Jackson Labs, #000485) and non-lupus prone control MRL/MpJ (Jackson Labs, #000486) mice were obtained from Jackson Laboratories (Bar Harbor, Me.) at 6-weeks of age. Spontaneous SLE-prone NZBWF1/J (NZM) (catalog no. 100008) female mice and non-lupus prone (within time from of experiment) NZW/LacJ (catalog no. 001058) female mice were obtained from Jackson Laboratories (Bar Harbor, Me.) at 15-weeks of age. All mice were maintained on a […] light/dark cycle, with food and water available ad libitum. All experimental animal procedures were approved by and in accordance to the regulations of the Institutional Animal Care and Use Committee (IACUC) of Cephalon, Inc; approved IACUC protocol #03-040 and #03-03-041.
The NZM strain acts as a mouse model of genetically-driven, progressive, systemic lupus erythematosus (SLE). The evolution of the disease in NZM mice is characterized by an abnormal polyclonal B cell activation with a high production of various autoantibodies, including those directed against DNA and other nuclear antigens, and against cytoskeleton proteins. Elevated circulating immune complexes can lead to fatal glomerulonephritis in older mice.
as §1

anti-dsDNA antibodies = assay: Serum anti-dsDNA ANA ELISA in NZM mice; conditions: for A: Anti-dsDNA IgG, MEAN: NZM group mean; for A: Anti-dsDNA IgG: NZM individual mouse; for serum anti-dsDNA ANAs decrease compared to vehicle: NZM mice
From the text: The measurement of anti-dsDNA and anti-Smith antigen antibodies was done by an in-house generated custom ELISA assay. Chromatin coated plates were purchased from Inova Diagnostics, Inc. Purified bovine thymus dsDNA (Sigma, St. Louis, […].) or purified bovine Smith antigen (GenWay, San Diego, Calif.) were used as coating antigen for the detection of anti-dsDNA and anti-Smith Ag antibodies respectively. Coated plates were washed with Borate Sulfate Saline (BSS) and blocked with BSS containing 1% Bovine Serum Albumin (BSA) and 0.1% Tween-20 detergent. Standard curves were generated using mouse anti-chromatin antibody (Sigma, 2B1) or 25 week old MRL/lpr serum. Mouse anti-dsDNA antibody (Abcam, Cambridge, Mass.), or mouse anti-Smith antigen antibody (Abcam) were used as standards for each assay. Secondary antibody was purchased from Abcam (goat anti-mouse pAb-HRP), the substrate was purchased from Rockland (Gilbertsville, Pa.) (TMB), and stop reaction buffer was generated using 1 mL of concentrated sulfuric acid into 20 mL of dH2O. Developed plates were read using a Victor-X4 spectrophotometer reading at […] with a reference wavelength of 570 nm. For all ANA ELISA assays, values below the limit of detection set by the lowest point along the standard or set by the manufacturer were considered out of range and were not estimated, but assumed the lowest point along the standard curve for that particular assay.
as §1

[3] = NZM mice, sentence names 55 mg/kg and 100 mg/kg doses, p<0.05

## CN1CCN(c2cccc(Nc3nc4c(-c5ccc(S(C)(=O)=O)cc5)cccn4n3)c2)CC1 [COMPOUND A, [8-(4-methanesulfonyl-phenyl)-[1,2,4]triazolo[1,5-a]pyridin-2-yl]-[3-(4-methyl-piperazin-1-yl)-phenyl]-amine]
NZM mice [1]; CMPD A 55 mpk bid
  D: Glomerular Sclerosis: − (‘−’ no disease (1))
  E: Interstitial Infiltration: − (‘−’ no disease (1))
  G: Interstitial Fibrosis: − (‘−’ no disease (1))
NZM mice [1]; CMPD A 55 mpk bid, 55 mg/kg
  B: Glomerular Cellularity: + (‘+’ mild (2)); also recorded: − (‘−’ no disease (1))
  C: Glomerular Necrosis: − (‘−’ no disease (1)); also recorded: + (‘+’ mild (2))
  F: Tubular Atrophy: + (‘+’ mild (2)); also recorded: − (‘−’ no disease (1))
  H: Vasculitis: − (‘−’ no disease (1)); also recorded: + (‘+’ mild (2))
NZM mice [1]; CMPD A 100 mpk bid, 100 mg/kg
  B: Glomerular Cellularity: − (‘−’ no disease (1)); also recorded: + (‘+’ mild (2))
  C: Glomerular Necrosis: − (‘−’ no disease (1)); also recorded: + (‘+’ mild (2)); also recorded: ++ (‘++’ moderate (3))
  D: Glomerular Sclerosis: − (‘−’ no disease (1)); also recorded: ++ (‘++’ moderate (3))
  E: Interstitial Infiltration: − (‘−’ no disease (1)); also recorded: + (‘+’ mild (2))
  F: Tubular Atrophy: − (‘−’ no disease (1)); also recorded: + (‘+’ mild (2))
  G: Interstitial Fibrosis: − (‘−’ no disease (1)); also recorded: + (‘+’ mild (2))
  H: Vasculitis: − (‘−’ no disease (1)); also recorded: + (‘+’ mild (2))
NZM mice [1]; COMPOUND A 55 mg/kg
  Glomerular Cellularity: 1.33
  Glomerular Necrosis: 1.22
  Glomerulosclerosis: 1.00
  Interstitial Fibrosis: 1.0
  Interstitial Infiltration: 1.11
  Tubular Atrophy: 1.22
  Vasculitis: 1.11
NZM mice [1]; COMPOUND A 100 mg/kg
  Glomerular Cellularity: 1.44
  Glomerular Necrosis: 1.44
  Glomerulosclerosis: 1.22
  Interstitial Fibrosis: 1.22
  Interstitial Infiltration: 1.22
  Tubular Atrophy: 1.33
  Vasculitis: 1.44
NZM mice [1]; NZM mice treated with COMPOUND A, FIG. 19
  enlarged glomeruli and leukocytic infiltrates in renal sections: absent
NZM mice [1]; NZM mice, COMPOUND A 55 mg/kg
  glomerular cellularity decrease compared to vehicle: 59.3%
NZM mice [1]; NZM mice, COMPOUND A 100 mg/kg
  glomerular cellularity decrease compared to vehicle: 56.2%
NZM mice [1]; NZM mice, comparable to non-diseased NZW/LacJ age-matched control, FIG. 19
  renal pathologies: decreased renal pathologies
NZM mice [1]; [3]
  interstitial fibrosis decrease compared to vehicle: 58.3%
  vasculitis decrease compared to vehicle: 8.3%
NZM mice [2]; CMPD A 55 mpk bid
  Age (d), MEAN: 300.2 days
NZM mice [2]; CMPD A 100 mpk bid
  Age (d), MEAN: 291.8 days
NZM mice [2]; CMPD A 55 mpk bid, 55 mg/kg
  Age: 310 d (9×) and 212 d
NZM mice [2]; CMPD A 100 mpk bid, 100 mg/kg
  Age: 310 d (7×) and 268 d (2×) and 212 d
NZM mice [2]; COMPOUND A 55 mg/kg orally twice a day
  survival at EOS: 90%
NZM mice [2]; COMPOUND A 100 mg/kg orally twice a day
  survival at EOS: 70%
anti-dsDNA antibodies; CMPD A 55 mpk bid
  A: Anti-dsDNA IgG, MEAN: 16.4
anti-dsDNA antibodies; CMPD A 100 mpk bid
  A: Anti-dsDNA IgG, MEAN: 14.4
anti-dsDNA antibodies; CMPD A 55 mpk bid, 55 mg/kg
  A: Anti-dsDNA IgG: 20.6 and 39.4 and 9.4 and 12.6 and 12.7 and 7.5 and 15.2 and 16.7 and 19.3 and 10.8
anti-dsDNA antibodies; CMPD A 100 mpk bid, 100 mg/kg
  A: Anti-dsDNA IgG: 13.4 and 18.2 and 9.6 and 13.8 and 11.5 and 6.6 and 20.5 and 5.1 and 26.5 and 19.2
anti-dsDNA antibodies; COMPOUND A 55 mg/kg, over course of disease
  serum anti-dsDNA ANAs decrease compared to vehicle: 67.0%
anti-dsDNA antibodies; COMPOUND A 100 mg/kg, over course of disease
  serum anti-dsDNA ANAs decrease compared to vehicle: 73.9%

## O=P1(N(CCCl)CCCl)NCCCO1 (stereo not drawn) [CTX, cyclophosphamide, reference compound]
NZM mice [1]; CTX 50 mpk 1 × wk
  B: Glomerular Cellularity: ++ (‘++’ moderate (3)); also recorded: + (‘+’ mild (2)); also recorded: − (‘−’ no disease (1))
  C: Glomerular Necrosis: ++ (‘++’ moderate (3)) (2×) and − (‘−’ no disease (1)) (3×) and + (‘+’ mild (2)) (3×) and _
  D: Glomerular Sclerosis: +++ (‘+++’ high (4)); also recorded: − (‘−’ no disease (1)); also recorded: ++ (‘++’ moderate (3)); also recorded: + (‘+’ mild (2))
  E: Interstitial Infiltration: + (‘+’ mild (2)) (2×) and − (‘−’ no disease (1)) (5×) and +++ (‘+++’ high (4)) and _
  F: Tubular Atrophy: ++++ (‘++++’ severe disease (5)); also recorded: − (‘−’ no disease (1)); also recorded: + (‘+’ mild (2)); also recorded: ++ (‘++’ moderate (3))
  G: Interstitial Fibrosis: +++ (‘+++’ high (4)); also recorded: − (‘−’ no disease (1)); also recorded: + (‘+’ mild (2))
  H: Vasculitis: + (‘+’ mild (2)); also recorded: − (‘−’ no disease (1))
NZM mice [1]; CTX 50 mg/kg
  Glomerular Cellularity: 2.0
  Glomerular Necrosis: 1.77
  Glomerulosclerosis: 2.11
  Interstitial Fibrosis: 1.55
  Interstitial Infiltration: 1.55
  Tubular Atrophy: 2.00
  Vasculitis: 1.33
NZM mice [2]; CTX 50 mpk 1 × wk
  Age (d), MEAN: 284.9 days
  Age: 227 d and 310 d (7×) and 212 d and 240 d
NZM mice [2]; CTX 50 mg/kg once weekly ip
  survival at EOS: 70%
anti-dsDNA antibodies; CTX 50 mpk 1 × wk
  A: Anti-dsDNA IgG, MEAN: 30.9
  A: Anti-dsDNA IgG: 13.4 and 6.9 and 22.2 and 13.2 and 40.3 and 9.6 and 65.1 and 52.4 and 24.3 and 61.9
anti-dsDNA antibodies; CTX 50 mg/kg once weekly ip
  serum anti-dsDNA ANAs decrease compared to vehicle: 65.3%
